For the assay, the target named is human TAAR1 receptor (Homo sapiens (Human), UniProt Q96RJ0). The assay is described as follows: Evaluation of agonist activity on human TAAR1 receptor (cAMP assay). Format: cell-based. The settings on record: for activation at 0.1 µM / activation at 1 µM / activation at 10 µM: CHO, 0.5 h, read-out: TAAR1 agonist activity at each concentration (%). As for the experimental part: TAAR1 is a G protein-coupled receptor that binds to G proteins (Gas), and activation of the TAAR1 receptor by agonists induces an increase in intracellular cAMP levels. Therefore, the agonist activity of the sample on the human TAAR1 receptor was evaluated using the cAMP assay method.
Sequence of human TAAR1 receptor (Q96RJ0 whole entry, the tested form may be a part): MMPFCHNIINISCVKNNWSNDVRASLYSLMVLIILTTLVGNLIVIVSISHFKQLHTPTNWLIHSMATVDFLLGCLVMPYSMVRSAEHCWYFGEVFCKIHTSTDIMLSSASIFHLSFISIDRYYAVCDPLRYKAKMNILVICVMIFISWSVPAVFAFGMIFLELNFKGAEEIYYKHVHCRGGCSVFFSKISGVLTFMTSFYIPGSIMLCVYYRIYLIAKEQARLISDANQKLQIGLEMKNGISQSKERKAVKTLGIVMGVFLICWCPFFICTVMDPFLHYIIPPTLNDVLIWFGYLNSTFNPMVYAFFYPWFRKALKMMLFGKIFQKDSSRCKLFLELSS
cAMP Hunter™ CHO-K1 TAAR1 Gs Cell Line, a cell expressing human TAAR1 receptor, was purchased. Human TAAR1-expressing CHO cells were seeded in a 96-well plate, and after culturing for 24 hours, a sample dissolved in DMSO was added and incubated at 37° C. for 30 minutes. A sample for cAMP measurement was prepared according to the cAMPHiRange kit protocol. The amount of cAMP produced by the sample was measured by time-resolved fluorescence using EnVision (excitation wavelength: 330 nm, fluorescence wavelength […]/665 nm).
Sample %=100×{(Csamp)−(Cblank)}/{(Ctyramine)−(Cblank)} • Csamp: count of sample, Ctyramine: count of 100 μM tyramine, Cblank: count of blank
For orientation: cAMP levels reflect the balance of adenylyl cyclase and phosphodiesterase activity.

The mark [1] stands for this setting: 100 nM, cAMP in human TAAR1-expressing CHO cells, relative to 100 μM tyramine.
Where [2] appears, read: 1000 nM, cAMP in human TAAR1-expressing CHO cells, relative to 100 μM tyramine.
Where [3] appears, read: 10000 nM, cAMP in human TAAR1-expressing CHO cells, relative to 100 μM tyramine.

Where a name gives a salt, the structure may show the parent alone. Read-outs that look alike come from different tables or passages of the source.

Consider `CC[C@@H]1COc2cccnc2[C@@H]1CN` (racemic) [Example 87], for which the activation at 0.1 µM under setting [1] was 4%. In addition, under setting [2], the activation at 1 µM stood at 25%. The activation at 10 µM under setting [3] worked out at 63%.
On the same counts, the results for `C[C@H]1C[C@@H](CN)c2ncccc2S1` (racemic) [Example 13] are 4%, 31% and 63%.
On the same counts, the results for `C[C@@H]1Oc2cccnc2[C@@H]1CN` [Example 20] are 33%, 88% and 107%.
Consider `C[C@H]1Oc2cc(Cl)cnc2[C@@H]1CN` (racemic) [Example 85], for which the “TAAR1 agonist activity at each concentration (%)” value (shortened to “TAAR1 agonist activity … (%)”) by setting is: under setting [1], 6%; under setting [2], 37%; under setting [3], 70%.
Take `CCNC[C@H]1c2ncccc2O[C@@H]1C` [Example 74]: under setting [1], the activation at 0.1 µM came out at 7%. Moreover, under setting [2], the activation at 1 µM stood at 46%. Further, the activation at 10 µM under setting [3] stood at 92%.
Take `C[C@H](N)[C@H]1c2ncccc2O[C@@H]1C` [Example 55]: the “TAAR1 agonist activity … (%)” value is, setting by setting: under setting [1], 31%; under setting [2], 75%; under setting [3], 87%.
Consider `CNCC1CC(C)c2cccnc21` (stereo not drawn) [Example 78], for which the activation at 0.1 µM under setting [1] worked out at 0%. Under setting [2], the activation at 1 µM came out at 5%. Further, the activation at 10 µM under setting [3] came out at 27%.
On the same counts, the results for `COCCNC[C@H]1c2ncccc2O[C@@H]1C` [Example 73] are 0%, 9% and 40%.
On the same counts, the results for `NCC1c2ncccc2OCC12CC2` (stereo not drawn) [Example 69] are 4%, 30% and 62%.
As to `[2H][C@@]1(C)Oc2cccnc2[C@H]1CN` (stereo in doubt) [Example 94, rel-1-[(2S,3R)-2-methyl(2-^2H)-2,3-dihydrofuro[3,2-b]pyridin-3-yl]methanamine dihydrochloride], the activation at 0.1 µM under setting [1] was found to be 1%. Moreover, under setting [2], the activation at 1 µM worked out at 4%. Besides, the activation at 10 µM under setting [3] came out at 28%.
On the same counts, the results for `CC[C@H]1Oc2cccnc2[C@@H]1CN` (stereo in doubt) [Example 43, rel-1-[(2R,3S)-2-ethyl-2,3-dihydrofuro[3,2-b]pyridin-3-yl]methanamine dihydrochloride] are 0%, 0% and 7%.
Consider `C[C@H]1Oc2c(F)ccnc2[C@@H]1CN` [Example 59], for which the activation at 0.1 µM under setting [1] amounted to 19%. Besides, under setting [2], the activation at 1 µM turned out to be 65%. In addition, the activation at 10 µM under setting [3] stood at 84%.
On the same counts, the results for `C[C@@H]1COc2cccnc2[C@@H]1CN` (stereo in doubt) [Example 4, rel-1-[(3S,4S)-3-methyl-3,4-dihydro-2H-pyrano[3,2-b]pyridin-4-yl]methanamine dihydrochloride] are 17%, 55% and 67%.
On the same counts, the results for `[2H][C@]1(C)Oc2cccnc2[C@@H]1CN` (stereo in doubt) [Example 57] are 32%, 72% and 79%.
Regarding `NC[C@@H]1c2ncc(Cl)cc2OC12CC2` (single isomer, unassigned) [Example 98, rel-1-[(3′R)-6′-chloro-3′H-spiro[cyclopropane-1,2′-furo[3,2-b]pyridine]-3′-yl]methanamine dihydrochloride], the activation at 0.1 µM under setting [1] was 1%. The activation at 1 µM under setting [2] came out at 9%. Under setting [3], the activation at 10 µM was 37%.
On the same counts, the results for `Cc1ccc2c(n1)[C@@H](CN)C1(CC1)O2` (single isomer, unassigned) [Example 100, rel-1-[(3′R)-5′-methyl-3′H-spiro[cyclopropane-1,2′-furo[3,2-b]pyridine]-3′-yl]methanamine dihydrochloride] are 0%, 17% and 50%.
On the same counts, the results for `Cc1ccc2c(n1)[C@@H](CN)C(C)(C)O2` (single isomer, unassigned) [Example 104, dihydrochloride] are 0%, 5% and 31%.
On the same counts, the results for `COC[C@H]1Oc2cccnc2[C@@H]1CN` (racemic) [Example 32] are 1%, 4% and 22%.
Regarding `Cc1ccc2c(n1)[C@H](CN)C(C)(C)O2` (single isomer, unassigned) [Example 105, dihydrochloride], under setting [1], the activation at 0.1 µM came out at 64%. For the same molecule, under setting [2], the activation at 1 µM turned out to be 77%. For the same molecule, the activation at 10 µM under setting [3] came to 79%.
On the same counts, the results for `C[C@H]1COc2cccnc2[C@H]1CN` (stereo in doubt) [Example 3, rel-1-[(3R,4R)-3-methyl-3,4-dihydro-2H-pyrano[3,2-b]pyridin-4-yl]methanamine dihydrochloride] are 0%, 1% and 9%.
On the same counts, the results for `C[C@H]1Oc2cc(C(F)(F)F)cnc2[C@@H]1CN` [Example 31] are 1%, 3% and 12%.
On the same counts, the results for `Cc1ccc(-c2ccnc3c2CCCC3CN)cc1` (racemic) [Example 89, rac-1-[4-(4-methylphenyl)-5,6,7,8-tetrahydroquinolin-8-yl]methanamine dihydrochloride] are 0%, 23% and 48%.
Regarding `NC[C@H]1c2nc(F)ccc2OC12CC2` (single isomer, unassigned) [Example 103, rel-1-[(3'S)-5′-fluoro-3′H-spiro[cyclopropane-1,2′-furo[3,2-b]pyridine]-3′-yl]methanamine dihydrobromide], under setting [1], the activation at 0.1 µM is 60%. For the same molecule, the activation at 1 µM under setting [2] is 84%. For the same molecule, the activation at 10 µM under setting [3] amounted to 89%.
Turning to `NC[C@H]1CCSc2cccnc21` (single isomer, unassigned) [Example 39, dihydrochloride], under setting [1], the activation at 0.1 µM amounted to 1%. Under setting [2], the activation at 1 µM was found to be 12%. Under setting [3], the activation at 10 µM was 48%.
On the same counts, the results for `CC(C)[C@H]1Oc2cccnc2[C@@H]1CN` (racemic) [Example 21] are 0%, 23% and 81%.
On the same counts, the results for `C[C@@H]1C[C@@H](CN)c2ncc(F)cc2O1` [Example 66] are 21%, 66% and 82%.
On the same counts, the results for `[2H]C([2H])([2H])NC[C@H]1c2ncc(F)cc2O[C@@H]1C` [Example 80] are 17%, 48% and 62%.
As for `C[C@H]1[C@H](C)Oc2cccnc2[C@H]1CN` (racemic) [Example 64], the activation at 0.1 µM under setting [1] amounted to 0%. In addition, the activation at 1 µM under setting [2] worked out at 7%. Besides, under setting [3], the activation at 10 µM was found to be 40%.
`C[C@@H]1[C@H](C)Oc2cccnc2[C@H]1CN` (racemic) [Example 65]: the activation at 0.1 µM under setting [1] is 0%. In addition, under setting [2], the activation at 1 µM stood at 28%. The activation at 10 µM under setting [3] came to 67%.
Regarding `C[C@@H](N)[C@H]1c2ncccc2O[C@@H]1C` [Example 56], the “TAAR1 agonist activity … (%)” value under setting [1] is listed as 23%, the “TAAR1 agonist activity … (%)” value under setting [2] turned out to be 67% and the “TAAR1 agonist activity … (%)” value under setting [3] worked out at 82%.
On to `CC[C@@H]1C[C@@H](CN)c2ncccc2O1` (racemic) [Example 61], for which the activation at 0.1 µM under setting [1] worked out at 2%. Also, the activation at 1 µM under setting [2] amounted to 22%. Moreover, the activation at 10 µM under setting [3] stood at 66%.
With `CC1(C)COc2cccnc2C1CN` (stereo not drawn) [Example 53], the activation at 0.1 µM is 0%, the activation at 1 µM was 3% and the activation at 10 µM is 18%.
For `NCC1c2nc(Cl)ccc2OC12CC2` (stereo not drawn) [Example 81], the activation at 0.1 µM under setting [1] worked out at 48%. The activation at 1 µM under setting [2] is 86%. Under setting [3], the activation at 10 µM is 95%.
With `CC1(C)Oc2ccc(F)nc2C1CN` (racemic) [Example 106, rac-1-(5-fluoro-2,2-dimethyl-2,3-dihydrofuro[3,2-b]pyridin-3-yl)methanamine dihydrobromide], under setting [1], the activation at 0.1 µM stood at 38%. In addition, under setting [2], the activation at 1 µM amounted to 70%. Under setting [3], the activation at 10 µM was 78%.
On the same counts, the results for `C[C@@H]1C[C@H](CN)c2ncc(F)cc2O1` [Example 52] are 1%, 8% and 48%.

The values above are taken from patent publication US20240150370A1, “BICYCLIC PYRIDINE DERIVATIVE” (Sumitomo Pharma Co., Ltd., priority 0001, published 2024).
